The source of these data is PMC13081163, “Discovery of a novel Nrf2 activator that modulates mitochondrial function in neurons by regulating DHRS3-Nrf2 interaction after ischemic stroke” (Theranostics, 2026).

SMILES strings stand for the structures.

Data set [1] in a line: Acute (7-day i.v.) toxicity in rats. Type of data set: in vivo, rat. The following applies: 10 mg/kg i.v. daily for 7 days. The procedure:
Cpd.51 was dissolved in solvent (10% DMSO, 10% Solutol HS-15 and 80% saline). It was injected (i.v.) at dose of 3 mg/kg or 5 mg/kg in a 0.5 mL volume. The Sham group and Vehicle group were treated simultaneously with an equal volume of solvent. In the experiment to explore the treatment time window, we merely administered the drug to the rats at different time points, while all other procedures remained unchanged. In the short-term toxicity study, 10 mg/kg Cpd.51 and Oma were administered via tail vein injection at 0.5 mL daily for 7 consecutive days.
Glutamic-pyruvic transaminase (GPT) kits (ml092635, mlbio, China), glutamic oxaloacetic transaminase (GOT) kits (ml092714, mlbio, China), creatinine (CRE) kits (M12C4L, mlbio, China) and blood urea nitrogen (BUN) kits (ml076479, China) were used to detect the serum of rats in order to evaluate liver and kidney functions. Male and female rats were randomly divided into Sham group, Cpd.51 group and Oma group. Doses were administered once daily at 10 mg/kg and body weights were recorded accordingly. Sham groups were given the same volume of solvent. After 7 days, the […] were sacrificed, serum was collected and tested according to the instructions.

Data set [2] is described as follows: Metabolite identification in human liver microsomes. In kind it is in vitro ADME. The procedure: In vitro identification of metabolites was performed by incubating Cpd.51 (parent compound, final concentration 10 µM) with human liver microsomes (final protein concentration, 1 mg/mL) at 37 °C in a 100 mM potassium phosphate buffer containing 5 mM MgCl2. Samples were quenched with methanol and analyzed using a Waters G2-XS Q-Tof UPLC-MS system employing positive-ion and negative-ion electrospray ionization. The LC-MS extract ion chromatograms to identify the major putative metabolites. MS/MS spectra of Cpd.51 and its metabolites were acquired during both positive-ion and negative-ion electrospray. The potential chemical structures of the metabolites were inferred from their MS/MS spectra and retention times. Metabolic pathways of Cpd.51 in human liver microsomes were subsequently proposed. […]
The objective of this study is to identify major metabolites of Cpd.51 generated in human […]
In vitro metabolites identification was conducted after incubating Cpd.51 (parent compound, final concentration 10 µM) with human liver microsomes (final protein concentration, 1 mg/mL) at 37 °C in 100 mM potassium phosphate buffer containing 5 mM MgCl2 in the presence of NADPH or without NADPH. The samples taken at 0 minute (min) and 5 min were quenched by methanol and analyzed using Waters G2-XS Q-Tof UPLC-MS system with positive-ion and negative-ion electrospray ionization. […]

On to `CC1(C)CCC2(C(=O)NO)CCC3(C)C(C(=O)C=C4C5(C)C=C(C#N)C(=O)C(C)(C)C5CCC43C)C2C1` (centres unmarked) [Cpd.51], for which, in data set [1], the “liver hypertrophy, serum GPT and GOT” value is “not observed”; the “serum CRE and BUN” value is “did not induce these changes”; the weight gain result is reported as “suppressed weight gain”. For the same compound, the “number of major metabolites” value in data set [2] (human liver microsomes) is 10. Also, the “Relative UV abundance (5 min), relative to parent in T0 sample” value in data set [2] (human liver microsomes with NADPH, 10 µM Cpd.51, 5 min, UV 250-260 nm) turned out to be 54.06%.
